{
  "source": "patent US20210301318A1",
  "about": "“A BIOMARKER AND TARGET FOR DIAGNOSIS, PROGNOSIS AND TREATMENT OF ANKYLOSING SPONDYLITIS” (priority 2018, published 2021)",
  "key": {"[1]": {"system": "AS MSCs", "assay": "Mineralization of AS MSCs under osteogenic induction (Alizarin red S staining)", "assay_type": "cell-based, human", "conditions": "100 μM levamisole, 100 μM beryllium sulfate, or 1 μg/ml pamidronate", "quoted_text": "The same passages (p3 to p5) of AS MSCs and N MSCs were compared.\nThe first culture condition was osteogenic induction, whereby α-MEM was supplemented with 10% fetal bovine serum (Gibco), 50 μg/mL ascorbate-2 phosphate (Sigma-Aldrich, St. Louis, Mo., USA), 10 nmol/L dexamethasone (Sigma-Aldrich), and 10 mmol/L β-glycerophosphate (Sigma-Aldrich). […] The medium was changed every 3 days. After appearance of the morphologic features of differentiation, cells were fixed with 4% paraformaldehyde. Cells treated by osteogenic culture were stained for Alizarin red S (Sigma-Aldrich) for mineralization. Quantification of Alizarin red S staining was conducted by measurement of the optical density (OD) of extracted dye at 550 nm with a plate reader (Molecular Devices, Sunnyvale, Calif., USA).\nAfter morphological differentiation, cells were subjected to Alizarin red S staining."}, "[2]": {"molecular_target": "T1, TNAP (Homo sapiens, UniProt P05186)", "T1 sequence (P05186 18-501 limits assumed)": "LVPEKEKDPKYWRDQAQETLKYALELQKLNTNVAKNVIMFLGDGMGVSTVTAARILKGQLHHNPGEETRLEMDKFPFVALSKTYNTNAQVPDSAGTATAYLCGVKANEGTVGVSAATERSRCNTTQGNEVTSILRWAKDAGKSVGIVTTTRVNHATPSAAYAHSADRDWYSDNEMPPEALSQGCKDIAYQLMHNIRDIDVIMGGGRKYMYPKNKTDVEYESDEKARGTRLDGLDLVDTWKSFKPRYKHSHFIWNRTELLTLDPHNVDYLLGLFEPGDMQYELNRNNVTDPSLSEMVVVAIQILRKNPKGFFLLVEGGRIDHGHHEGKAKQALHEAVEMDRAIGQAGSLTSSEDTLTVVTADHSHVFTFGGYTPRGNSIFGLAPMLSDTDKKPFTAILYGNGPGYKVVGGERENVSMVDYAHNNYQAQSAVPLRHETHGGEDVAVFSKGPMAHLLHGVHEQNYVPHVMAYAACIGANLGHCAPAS", "conditions": "from references 22-24; cited from earlier work"}, "[3]": {"system": "NOD-SCID mice implanted with AS MSCs", "assay": "New bony apposition in NOD-SCID mice implanted with AS MSCs (micro-computed tomography of lumbar spine)", "assay_type": "in vivo", "conditions": "daily oral administration: levamisole 10 mg/kg, beryllium sulfate 7.5 mg/kg, pamidronate 0.3 mg/kg; micro-CT 3 weeks after implantation", "description": "The animal experimental protocol was approved by the Animal Care and Utilization Committee of Taipei Tzu Chi General Hospital. NOD-SCID mice (8-10 weeks) were purchased from BioLASCO (Taipei, Taiwan) and maintained in a specific pathogen-free environment. Human MSCs were treated with β-glycerophosphate in culture for 5 days, embedded in fibrin (10^6 cells in 5 μl fibrin) (Baxter, Vienna, Austria) and implanted in areas adjacent to right lamina of lumbar spine segments L4 to L5 in NOD-SCID mice. The lamina of lumbar spine was decorticated using the forceps. Mice were fed with a 0.9% phosphate diet (Dyets, Bethlehem, Pa., USA) after surgery. Micro-computed tomography (SkyScan 1076; Kontich, Belgium) over lumbar spines was undertaken 3 weeks after implantation. Bone mineral density over the femur measured by micro-computed tomography in NOD-SCID mice following implantation with AS MSCs and daily oral administration of H2O levamisole (10 mg/kg), beryllium sulfate tetrahydrate (7.5 mg/kg), or pamidronate (0.3 mg/kg) for 12 weeks. Quantitative volumes of new bony apposition were acquired by Bruker CT-Volume version 2.0 software."}, "[4]": {"system": "AS patients", "conditions": "cited from earlier work"}},
  "note": "Entries after “also recorded” stand apart in the source; their conditions may differ.",
  "data": [
    {"smiles": "O.O.O.O.O=S(=O)([O-])[O-].[Be+2]", "note": "[beryllium sulfate, BeSO4•4H2O]", "values": [
      {"measurement": "accelerated mineralization in AS MSCs (ARS staining)", "setting": "[1]", "value": "blocked effectively"},
      {"measurement": "type of TNAP inhibition", "setting": "[2]", "value": "competitive"}
    ]},
    {"smiles": "c1ccc([C@H]2CN3CCSC3=N2)cc1", "note": "[levamisole, (6S)-6-phenyl-2H,3H,5H,6H-imidazo[2,1-b][1,3]thiazole]", "values": [
      {"measurement": "accelerated mineralization in AS MSCs (ARS staining)", "setting": "[1]", "value": "blocked effectively; also recorded: inhibit this abnormal mineralization"},
      {"measurement": "type of TNAP inhibition", "setting": "[2]", "value": "uncompetitive"},
      {"measurement": "new bony apposition induced by AS MSCs", "setting": "[3]", "value": "blocked"},
      {"measurement": "inflammation of AS patients", "setting": "[4]; some studies, references 26-29", "value": "marginally reduce inflammation"}
    ]},
    {"smiles": "NCCC(O)(P(=O)(O)O)P(=O)(O)O", "note": "[pamidronate]", "values": [
      {"measurement": "accelerated mineralization in AS MSCs (ARS staining)", "setting": "[1]", "value": "blocked effectively; also recorded: inhibit this abnormal mineralization"},
      {"measurement": "type of TNAP inhibition", "setting": "[2]", "value": "uncompetitive"},
      {"measurement": "new bony apposition induced by AS MSCs", "setting": "[3]", "value": "blocked"},
      {"measurement": "serum BAP levels", "setting": "[4]; one study, reference 34", "value": "lowering serum BAP levels"}
    ]}
  ]
}
